# Assays:
# [1] = tested on: Staphylococcus aureus 6751; experiment: Bacterial growth rate by optical density, 96 well plate (Tests 6(d), 6(e)); format: cell-based
# Protocol: (§1) Bacteria were seeded into nutrient broth (NB) and grown over night at 37° C. The culture was then counted and normalised to give a final cell concentration of 1.8×10^7 cells well^−1 into the wells of a 96 well plate in fresh nutrient broth. The optical density of each well was monitored every 15 minutes as a measure of the growth rate of each bacterial species. Growth curves were generated for each species and the maximal rate of growth (logarithmic phase) was measured. Cells were treated to a range of experimental conditions in which the growth rate of cells was related to a control of untreated cells. The results were expressed as a percentage of the growth rate of the control cells.
# (§2) (i) At a fixed concentration of hypoxanthine (100 μM) a range of purified XO protein concentrations were added at time 0 minutes. The optical density was followed and the growth rate calculated.
# (§3) (ii) The growth rate was also measured in relation to the concentration of hypoxanthine, using 30 μg of XO with cells seeded as described above.
# [2] = tested on: Lactobacillus casei 6375; experiment: as above; format: cell-based; details: highest concentration
# Protocol: as §1, §2, §3
# [3] = tested on: Escherichia coli NCTC 86; experiment: Peroxynitrite effect on cell viability, colony count (Test 6(a)); format: cell-based; details: E. coli; 100 μM to 0.01 μM; FIG. 1
# Protocol: (§4) To obtain cells used in this test, the infective bacterial strain Escherichia coli NCTC 86 (E.coli) was cultured on nutrient agar at 37° until colony formation occurred, usually overnight. This stock culture was used for subsequent experiments including sub-culturing in nutrient broth and plated onto agar weekly. Experimental cultures of E.coli were set up overnight in nutrient broth from single colonies on an agar plate. Cells were harvested and counted using a standard curve of known absorbance at 470 nm against viable cell count. Peroxynitrite was generated by the method of Crow et al BIOCHEM. 34 pages 3544 to 3552 (1995). In accordance with that method, a mixture of sodium nitrite and hydrogen peroxide was reacted under acid conditions then immediately quenched by the addition of sodium hydroxide. The concentration of ONOO^− formed was measured using an absorption coefficient of 1670 M^−1 cm^−1 in a spectrophotometer at a wavelength of 303 nm. Solutions of different concentrations for use in (a) below were obtained by dilution of the product solution using PBS.
# Cells cultured as described above were diluted to suitable working concentrations (10^4-10^5 Cells Ml^−1) in sterile phosphate buffered saline (PBS). […] Viable cells formed colonies on the agar and were counted. […]
# [4] = tested on: S. enteritidis; experiment: as above; format: cell-based
# Protocol: Cells cultured as described above were diluted to suitable working concentrations (10^4-10^5 Cells Ml^−1) in sterile phosphate buffered saline (PBS). ONOO^− at a range of concentrations from 100 μM to 0.01 μM was added as a bolus dose to cells and incubated at room temperature for ten minutes. Aliquots were taken from the cell cultures and plated on to nutrient agar and incubated in a warm room at 37° C. overnight. Viable cells formed colonies on the agar and were counted. The number of colonies formed was related to an untreated control and a graph of the results is shown in FIG. 1, which illustrates the effect of ONOO^− on cell viability.
# [5] = tested on: E. coli; experiment: Effect of peroxynitrite scavenger on bacterial growth, growth curves by absorbance (Test 6(c)); format: cell-based
# Protocol: E. coli were seeded into nutrient broth at 2.10^7 cell ml^−1 and incubated at 37° C. under atmospheric air conditions (that is, 21% oxygen saturation). Four separate test samples of volume 1 ml were prepared by addition at 1 hour of incubation as follows:
# 1 Peroxynitrite at concentration 100 μM.
# 2 Peroxynitrite at 100 μM and quercetin (peroxynitrite scavenger) at 100 μμM.
# 3 Xanthine oxidase (53.2 μg) and xanthine at 100 μM.
# 4 Xanthine oxidase (53.2 μg) and NADH at 100 μM.
# Corresponding controls were also prepared, and the growth curves generated over time determined by monitoring absorbance.
# [6] = tested on: Straphylococcu aureus; experiment: Incubation of Gram positive bacteria with SIN-1, growth; format: cell-based
# [7] = Nitric oxide release from pure bovine xanthine oxidase with NADH and nitrite under hypoxic conditions (ozone chemiluminescence, Tests 1-3); format: biochemical
# Protocol: The production of nitric oxide in the following tests and examples was analysed using an ozone chemiluminescence assay in a continuous flow apparatus (Sievers NOA 280) that allows the real time analysis of NO production. The apparatus was modified to allow a constant stream of nitrogen to flow into the reaction chamber. Chemiluminescence data were collected by a data acquisition system; the mean NO produced in parts per billion (ppb) was calculated from readings taken every second and shown as NO ppb/s. Progress curves, of molar production of NO against time, were calculated by taking into account the gas flow and successively integrating the ppb/s curves. […]
# (d) Samples of NO were taken from the reaction cell by a needle that was connected to a Sievers Nitric Oxide Analyser (NOA-280 ) and the results were recorded for analysis using a computer.
# (e) At time (t) 0 minutes, the NOA-280 started the measurement of NO from the reaction cell. At t=1 minute, the contents of the “substrates” bijou were injected into the reaction cell using a 1 ml syringe and the background NO was measured.
# (f) At t=5 minutes, the contents of the “milk” bijou were injected into the reaction cell using a 1 ml syringe and the release of NO was monitored for a further 20 minutes. […]
# [8] = tested on: E.coli; experiment: Effect of xanthine oxidase derived species on cell viability at a range of oxygen concentrations (Test 6(b)); format: cell-based, Escherichia coli; details: XO, NADH, NaNO2 system
# Protocol: as §4, with “Solutions of different concentrations for use in (a) below were obtained by dilution of the product solution using PBS.” left out
# E.coli were cultured as described above. […] Desired oxygen concentrations were generated by delivery of a mixture of oxygen and nitrogen in appropriate proportions and determined using a Clark type O2 electrode. […] Viable cells formed colonies on the agar and were counted. Viable cell counts were performed in triplicate and the results expressed as a percentage viable count in each case related to a non enzyme control of the same oxygen concentration. […]
# [9] = tested on: S. enteritidis; experiment: as above; format: cell-based; details: XO, NADH, NaNO2 system
# Protocol: Aliquots were taken and incubated with a reaction system consisting of bovine Xanthine oxidase (XO) (53.2 μgml^−1), nicotinamide adenine dinucleotide in reduced form (NADH) (300 μM), sodium nitrite, (NaNO2) 1 mM and oxygen at a range of concentrations. […] This reaction was followed at 37° C. for 30 min with mixing before an aliquot was taken and plated onto agar and incubated in a warm room at 37° C. Viable cells formed colonies on the agar and were counted. Viable cell counts were performed in triplicate and the results expressed as a percentage viable count in each case related to a non enzyme control of the same oxygen concentration. […] The range of oxygen tensions used covers those in which XO has previously been considered to be active, namely superoxide generation (21% O2 saturation) and nitric oxide production (0% O2 saturation).
molecule,measurement,setting,value
"OO [H2O2, hydrogen peroxide]",growth inhibition in the presence of H2O2,"[1]; S. aureus, concentration ranges used",very limited
O=c1[nH]c(=O)c2c[nH]nc2[nH]1 [Oxypurinol],effect on growth rate when added alone,[2],no effect on growth rate
O=NOO [Peroxynitrite],effect on cell viability (viable count),[3],profound inhibitory effect
same,effect on viability,[4],reduce viability
same,killing (growth curves),"[5]; sample (1): peroxynitrite 100 μM added at 1 hour, 21% oxygen saturation",strong killing
"N=c1c[n+](N2CCOCC2)[n-]o1 [SIN-1, 3-morpholinosydnonimine]",growth on incubation with SIN-1,[6],reduced growth in dependence on the amount of added SIN-1
O=c1c(O)c(-c2ccc(O)c(O)c2)oc2cc(O)cc(O)c12 [quercetin],effect of scavenger on peroxynitrite killing,[5]; sample (2): peroxynitrite 100 μM and quercetin 100 μμM,clear effect in reducing killing
"XOR: Bovine xanthine oxidase (XOR), Biozyme, Blaenavon, UK; 10.7 mg/ml, batch 104AX",optimum pH for the production of NO from XOR,[7],~5.5 pH
same,killing at oxygen concentrations of about 21%,[8],about 5%
same,killing at oxygen concentrations of about 21%,[9],about 10%
same,growth inhibition by XO,"[1]; hypoxanthine 100 μM, compared with Lactobacillus, FIG. 3",less marked growth inhibition

# Reference: patent US6682732B1, “Treatment of lesions” (The University of Bath, priority 1998, dated 2004)
